Assay results taken from ChEMBL document CHEMBL3046513, “Synthesis, characterization, and biological evaluation of some N-aryl hydrazones and their 2,3-disubstituted-4-thiazolidinone derivatives” (Med Chem Res, 2013).
Converted amounts (≈) assume the structure as drawn.

test system: Candida albicans; assay: Antifungal activity against Candida albicans assessed as growth inhibition by serial plate dilution method; format: functional

Point of comparison: `COc1ccc(Br)c(C(=O)N/N=C\c2ccc([N+](=O)[O-])cc2)c1`, MIC 3.12 µg/mL (≈ 8.26 µM). Against it:
- COc1ccc(Br)c(C(=O)NN2C(=O)CSC2c2cccnc2)c1 (configuration not stated) — the same, 3.12 µg/mL (≈ 7.65 µM)
- COc1ccc(Br)c(C(=O)NN2C(=O)CSC2c2ccc(-c3ccccc3)cc2)c1 (configuration not stated) — 2-fold higher, 6.25 µg/mL (≈ 12.9 µM)
- COc1ccc(Br)c(C(=O)NN2C(=O)CSC2c2ccc(F)cc2)c1 (configuration not stated) — 2-fold higher, 6.25 µg/mL (≈ 14.7 µM)

test system: Bacillus cereus; assay: Antibacterial activity against Bacillus cereus assessed as growth inhibition by serial plate dilution method; format: functional

Point of comparison: `COc1ccc(Br)c(C(=O)N/N=C\c2ccc([N+](=O)[O-])cc2)c1`, MIC 6.25 µg/mL (≈ 16.5 µM). Against it:
- COc1ccc(Br)c(C(=O)NN2C(=O)CSC2c2cccnc2)c1 (configuration not stated) — the same, 6.25 µg/mL (≈ 15.3 µM)
- COc1ccc(Br)c(C(=O)NN2C(=O)CSC2c2ccc(-c3ccccc3)cc2)c1 (configuration not stated) — the same, 6.25 µg/mL (≈ 12.9 µM)
- COc1ccc(Br)c(C(=O)NN2C(=O)CSC2c2ccc(F)cc2)c1 (configuration not stated) — the same, 6.25 µg/mL (≈ 14.7 µM)

test system: Pseudomonas aeruginosa; assay: Antibacterial activity against Pseudomonas aeruginosa ATCC 27853 assessed as growth inhibition by serial plate dilution method; format: functional

Point of comparison: `COc1ccc(Br)c(C(=O)NN2C(=O)CSC2c2cccnc2)c1` (configuration not stated), MIC 6.25 µg/mL (≈ 15.3 µM). Against it:
- COc1ccc(Br)c(C(=O)NN2C(=O)CSC2c2ccc(-c3ccccc3)cc2)c1 (configuration not stated) — the same, 6.25 µg/mL (≈ 12.9 µM)
- COc1ccc(Br)c(C(=O)N/N=C\c2ccc([N+](=O)[O-])cc2)c1 — the same, 6.25 µg/mL (≈ 16.5 µM)
- COc1ccc(Br)c(C(=O)NN2C(=O)CSC2c2ccc(F)cc2)c1 (configuration not stated) — 2-fold higher, 12.5 µg/mL (≈ 29.4 µM)

test system: Staphylococcus aureus; assay: Antibacterial activity against Staphylococcus aureus ATCC 25923 assessed as growth inhibition by serial plate dilution method; format: functional

Point of comparison: `COc1ccc(Br)c(C(=O)NN2C(=O)CSC2c2cccnc2)c1` (configuration not stated), MIC 6.25 µg/mL (≈ 15.3 µM). Against it:
- COc1ccc(Br)c(C(=O)NN2C(=O)CSC2c2ccc(-c3ccccc3)cc2)c1 (configuration not stated) — 2-fold higher, 12.5 µg/mL (≈ 25.9 µM)
- COc1ccc(Br)c(C(=O)N/N=C\c2ccc([N+](=O)[O-])cc2)c1 — 2-fold higher, 12.5 µg/mL (≈ 33.1 µM)
- COc1ccc(Br)c(C(=O)NN2C(=O)CSC2c2ccc(F)cc2)c1 (configuration not stated) — 2-fold higher, 12.5 µg/mL (≈ 29.4 µM)

test system: Escherichia coli; assay: Antibacterial activity against Escherichia coli ATCC 25922 assessed as growth inhibition by serial plate dilution method; format: functional

Point of comparison: `COc1ccc(Br)c(C(=O)NN2C(=O)CSC2c2ccc(-c3ccccc3)cc2)c1` (configuration not stated), MIC 6.25 µg/mL (≈ 12.9 µM). Against it:
- COc1ccc(Br)c(C(=O)NN2C(=O)CSC2c2cccnc2)c1 (configuration not stated) — the same, 6.25 µg/mL (≈ 15.3 µM)
- COc1ccc(Br)c(C(=O)N/N=C\c2ccc([N+](=O)[O-])cc2)c1 — the same, 6.25 µg/mL (≈ 16.5 µM)
- COc1ccc(Br)c(C(=O)NN2C(=O)CSC2c2ccc(F)cc2)c1 (configuration not stated) — the same, 6.25 µg/mL (≈ 14.7 µM)

test system: Mus musculus; assay: Analgesic activity in Mus musculus […] albino (mouse) assessed as time taken to tail withdrawl at 100 mg/kg, po administered through intragastric tube after 180 min by tail flick test (reference value: 1.363 +/- 0.1297 secs); format: functional

Point of comparison: `COc1ccc(Br)c(C(=O)NN2C(=O)CSC2c2cccnc2)c1` (configuration not stated), Time 2.938 s. Against it:
- COc1ccc(Br)c(C(=O)NN2C(=O)CSC2c2ccc(-c3ccccc3)cc2)c1 (configuration not stated) — higher, 3.113 s
- COc1ccc(Br)c(C(=O)NN2C(=O)CSC2c2ccc(F)cc2)c1 (configuration not stated) — higher, 3.241 s

test system: Mus musculus; assay: Analgesic activity in Mus musculus […] albino (mouse) assessed as time taken to tail withdrawl at 100 mg/kg, po administered through intragastric tube after 120 min by tail flick test (reference value: 1.363 +/- 0.1297 secs); format: functional

Point of comparison: `COc1ccc(Br)c(C(=O)NN2C(=O)CSC2c2ccc(-c3ccccc3)cc2)c1` (configuration not stated), Time 3.313 s. Against it:
- COc1ccc(Br)c(C(=O)NN2C(=O)CSC2c2cccnc2)c1 (configuration not stated) — higher, 3.6 s
- COc1ccc(Br)c(C(=O)NN2C(=O)CSC2c2ccc(F)cc2)c1 (configuration not stated) — higher, 3.421 s

test system: Mus musculus; assay: Analgesic activity in Mus musculus […] albino (mouse) assessed as time taken to tail withdrawl at 100 mg/kg, po administered through intragastric tube after 60 min by tail flick test (reference value: 1.363 +/- 0.1297 secs); format: functional

Point of comparison: `COc1ccc(Br)c(C(=O)NN2C(=O)CSC2c2ccc(-c3ccccc3)cc2)c1` (configuration not stated), Time 2.988 s. Against it:
- COc1ccc(Br)c(C(=O)NN2C(=O)CSC2c2cccnc2)c1 (configuration not stated) — higher, 3.25 s
- COc1ccc(Br)c(C(=O)NN2C(=O)CSC2c2ccc(F)cc2)c1 (configuration not stated) — lower, 2.923 s

test system: Rattus norvegicus; assay: Anti-inflammatory activity in Rattus norvegicus (rat) assessed as decrease in carrageenan-induced paw edema at 100 mg/kg, po administered 30 min prior to carrageenan challenge measured after 180 min (reference value: 2.275 +/- 0.1181 mm); format: functional

Point of comparison: `COc1ccc(Br)c(C(=O)NN2C(=O)CSC2c2ccc(-c3ccccc3)cc2)c1` (configuration not stated), Activity 2.075 mm. Against it:
- COc1ccc(Br)c(C(=O)NN2C(=O)CSC2c2cccnc2)c1 (configuration not stated) — lower, 1.9 mm
- COc1ccc(Br)c(C(=O)NN2C(=O)CSC2c2ccc(F)cc2)c1 (configuration not stated) — higher, 2.2 mm

test system: Rattus norvegicus; assay: Anti-inflammatory activity in Rattus norvegicus (rat) assessed as decrease in carrageenan-induced paw edema at 100 mg/kg, po administered 30 min prior to carrageenan challenge measured after 120 min (reference value: 2.375 +/- 0.1436 mm); format: functional

Point of comparison: `COc1ccc(Br)c(C(=O)NN2C(=O)CSC2c2ccc(-c3ccccc3)cc2)c1` (configuration not stated), Activity 1.875 mm. Against it:
- COc1ccc(Br)c(C(=O)NN2C(=O)CSC2c2cccnc2)c1 (configuration not stated) — lower, 1.75 mm
- COc1ccc(Br)c(C(=O)NN2C(=O)CSC2c2ccc(F)cc2)c1 (configuration not stated) — higher, 2.05 mm

test system: Rattus norvegicus; assay: Anti-inflammatory activity in Rattus norvegicus (rat) assessed as decrease in carrageenan-induced paw edema at 100 mg/kg, po administered 30 min prior to carrageenan challenge measured after 60 min (reference value: 2.175 +/- 0.1797 mm); format: functional

Point of comparison: `COc1ccc(Br)c(C(=O)NN2C(=O)CSC2c2ccc(-c3ccccc3)cc2)c1` (configuration not stated), Activity 1.45 mm. Against it:
- COc1ccc(Br)c(C(=O)NN2C(=O)CSC2c2cccnc2)c1 (configuration not stated) — the same, 1.45 mm
- COc1ccc(Br)c(C(=O)NN2C(=O)CSC2c2ccc(F)cc2)c1 (configuration not stated) — higher, 2 mm

test system: Radical scavenging activity; assay: Antioxidant activity assessed as inhibition of DPPH radical generation at 800 ug/mL after 20 min by spectrophotometric analysis relative to control; format: functional

Point of comparison: `COc1ccc(Br)c(C(=O)NN2C(=O)CSC2c2ccc(F)cc2)c1` (configuration not stated), inhibition 57.1%. Against it:
- COc1ccc(Br)c(C(=O)NN2C(=O)CSC2c2cccnc2)c1 (configuration not stated) — lower, 25.1%
- COc1ccc(Br)c(C(=O)NN2C(=O)CSC2c2ccc(-c3ccccc3)cc2)c1 (configuration not stated) — higher, 62.5%

test system: Radical scavenging activity; assay: Antioxidant activity assessed as inhibition of DPPH radical generation at 400 ug/mL after 20 min by spectrophotometric analysis relative to control; format: functional

Point of comparison: `COc1ccc(Br)c(C(=O)NN2C(=O)CSC2c2ccc(F)cc2)c1` (configuration not stated), inhibition 51%. Against it:
- COc1ccc(Br)c(C(=O)NN2C(=O)CSC2c2cccnc2)c1 (configuration not stated) — lower, 23.5%
- COc1ccc(Br)c(C(=O)NN2C(=O)CSC2c2ccc(-c3ccccc3)cc2)c1 (configuration not stated) — lower, 39.9%

test system: Radical scavenging activity; assay: Antioxidant activity assessed as inhibition of DPPH radical generation at 200 ug/mL after 20 min by spectrophotometric analysis relative to control; format: functional

Point of comparison: `COc1ccc(Br)c(C(=O)NN2C(=O)CSC2c2cccnc2)c1` (configuration not stated), inhibition 21.6%. Against it:
- COc1ccc(Br)c(C(=O)NN2C(=O)CSC2c2ccc(-c3ccccc3)cc2)c1 (configuration not stated) — lower, 15.3%
- COc1ccc(Br)c(C(=O)NN2C(=O)CSC2c2ccc(F)cc2)c1 (configuration not stated) — higher, 37.8%
